For 13 compounds, IC50 and EC50 results are on record in US8466162B2, “5-alkynyl-pyridines” (Boehringer Ingelheim International GmbH, priority 2011, dated 2013).

The target in one assay is T1, PI3Kalpha (Homo sapiens, UniProt P42336).
T1 construct: His (N); made in house; host or cells: SF9 insect cells (baculovirus co-infection)
Put plainly: Inhibition of PI3Kalpha-induced PIP-2 phosphorylation (filter-binding assay, 33P-ATP). The class given is biochemical. To be noted: PI3 Kinase alpha (p85alpha/His-p110alpha), 1 μM ATP; read-out: IC50 PI3Kα. The procedure: Biological Methods Inhibition of PI3Kalpha-Induced PIP-2 Phosphorylation
See also J. A. Engelman, Nature Reviews Cancer, 2009, 9, 550-562; A. Carnero, Expert Opin. Investig. Drugs, 2009, 18, 1265-1277 and P. Liu et al., Nature Reviews Drug Discovery, 2009, 8, 627-64.
Method Type: Filter-Binding-Assay
Aliquoted in desired amounts and stored at −80° C. […] Assay Procedure
The substrate-containing lipid vesicles are dissolved to a concentration of 0.637 mg lipid blend/ml assay buffer (with BSA, freshly added) in 50 ml Falcon ->keep on ice, followed by ultrasonication (pulse of 15 sec followed by a pause of 10 sec, 4×). Compounds are serially diluted in assay buffer+6% DMSO and 10 μl of each dilution is added per well of a 96-well plate (compounds are tested in duplicates) and mixed with 30 μl of the lipid vesicles containing PDGFR-Peptide (0.5 μM final) and PI3K alpha (25 ng/well final). The mixture is then incubated for 20 minutes at room temperature.
Subsequently, 20 μl of assay buffer containing 3 μM cold ATP and 0.5 μCi/20 μl 33P-ATP are added. The plates are then incubated at room temperature for 120 minutes (shaking with 300 rpm).
The reaction mix is transferred onto filter plates using “filtermate harvester” from Packard: filter plates are rinsed with PBS, then the reaction mix is filtered onto the filter plate, washed 5 times with PBS and are allowed to dry for 30-60 minutes at 50° C. The plate bottom is sealed with Perkin Elmer white adhesive foil and 25 μl/well Microscint0 are added, the top is covered with transparent adhesive foil and the plate is measured with Wallac Trilux 1450 Microbeta Counter.
As positive control serve wells containing vehicle controls (1% DMSO in assay buffer), showing non-inhibited kinase activity (high values). Wells containing assay buffer instead of enzyme can serve as control for background activity (low values).
Calculate IC50 values using the Smiley program (based on GrapPad Prism)

The test system of another assay is H460 cells. As to the kind of experiment: alamarBlue H460 cell assay (antiproliferative/cytotoxicity). The conditions noted are these: NCI-H460; H460 human lung carcinoma cells. The class given is cell-based. The text has this: (§1) The H460, MB453, U87, MCF7 and BT474 alamarBlue cell assays provide EC50 values indicative of the antiproliferative or cytotoxic effects of the compounds to respectively the H460 (human non small cell line cancer), MB-453 (breast cancer cell line), U87 (glioblastoma cell line), MCF7 (breast cancer cell line) and BT474 (breast cancer cell line). As known in the field, antiproliferative or cytotoxic effect against this cell lines would be expected to be indicative of activity in treating lung, breast and brain cancers. See R. Marone R et al. Biochim. Biophys. Acta. 2008 January; 1784(1):159-85. S. Yaguchi et al., J. Natl. Cancer Inst. 2006 Apr. 19; 98(8):545-56.
(§2) Method Type: Antiproliferative/Cytotoxicity
(§3) alamarBlue® is designed to provide a rapid and sensitive measure of cell proliferation and cytotoxicity in various human and animal cell lines. The assay is based on the reduction of alamarBlue in the reducing environment of living (metabolically active) cells. In the presence of added cytotoxic or antiproliferative compounds, the innate metabolic activity ceases.
(§4) AlamarBlue is soluble and stable in culture medium. Measurements are made fluorometrically by exciting at 530-560 nm and measuring emission at 590 nm. In reporting percent alamarBlue reduction by monitoring fluorescence, data are expressed as fluorescence emission intensity units as a function of time of incubation.
(§5) 3. Equipment • 96-well plates, flat bottom (Falcon, Cat. No.: 353072) • 96-well plates, U-shaped (Costar, Cat. No.: 3799) • CO2-Incubator • Microplate Reader, Spectramax Plus, Molecular Devices 4. Typical Procedure • Day 0: Seed 3000 BT-474 cells (IMDM/5% FCS, 1% NEAA, 1% Sodiumpyruvat) in 150 μl medium into a 96-well plate, flat bottom (include mediumblank). Incubate plates at 37° C. in a CO2 incubator overnight. • Day 1: Dilute compounds to a concentration 40 μM ->1:3 in medium, 10 dilution steps, in 96-well plates. • Add 50 μl per well of each dilution (total volume per well 200 μl; final conc. of cpds: 10 μM ->1:3). If required, test further dilutions. • All concentrations are tested in duplicates. • Controls: Cells w/o cpd. (+50 μl medium/DMSO). • Cells are incubated with compounds for 5-6 days. • Day 6 or 7: Add 25 μl of alamarBlue solution to each well and incubate for 8 hours at 37° C. Measure fluorescence by exciting at 530-560 nm and measuring emission at 590 nm 5. Evaluation • Subtract average value for medium blank from sample readings • Calculate EC50 using GraphPad Prism (Fifty)
On the technique in general: The colour change of resazurin is a common sign of viable cells or microbes.

The next assay relates to MB453 cells. Put plainly: alamarBlue MB453 cell assay (antiproliferative/cytotoxicity). The class given is cell-based. To be noted: Homo sapiens; MDA MB 453 breast cancer cell line.
Excerpt: as §1, §2, §3, §4, §5

The subject of a further assay is U87 cells. As to the kind of experiment: alamarBlue U87 cell assay (antiproliferative/cytotoxicity). The conditions noted are these: U-87MG human glioblastoma cells. It counts as cell-based.
Excerpt: as §1, §2, §3, §4, §5

The subject of the next assay is MCF7 cells. As to the kind of experiment: alamarBlue MCF7 cell assay (antiproliferative/cytotoxicity). It counts as cell-based. To be noted: MCF7 human breast cancer cell line.
Excerpt: as §1, §2, §3, §4, §5

A further assay concerns BT474 cells. Put plainly: alamarBlue BT474 cell assay (antiproliferative/cytotoxicity). The class given is cell-based. The conditions noted are these: BT-474 human breast cancer cell line, 5-6 days incubation.
Excerpt: as §1, §2, §3, §4, §5

T1 sequence (P27986 whole entry): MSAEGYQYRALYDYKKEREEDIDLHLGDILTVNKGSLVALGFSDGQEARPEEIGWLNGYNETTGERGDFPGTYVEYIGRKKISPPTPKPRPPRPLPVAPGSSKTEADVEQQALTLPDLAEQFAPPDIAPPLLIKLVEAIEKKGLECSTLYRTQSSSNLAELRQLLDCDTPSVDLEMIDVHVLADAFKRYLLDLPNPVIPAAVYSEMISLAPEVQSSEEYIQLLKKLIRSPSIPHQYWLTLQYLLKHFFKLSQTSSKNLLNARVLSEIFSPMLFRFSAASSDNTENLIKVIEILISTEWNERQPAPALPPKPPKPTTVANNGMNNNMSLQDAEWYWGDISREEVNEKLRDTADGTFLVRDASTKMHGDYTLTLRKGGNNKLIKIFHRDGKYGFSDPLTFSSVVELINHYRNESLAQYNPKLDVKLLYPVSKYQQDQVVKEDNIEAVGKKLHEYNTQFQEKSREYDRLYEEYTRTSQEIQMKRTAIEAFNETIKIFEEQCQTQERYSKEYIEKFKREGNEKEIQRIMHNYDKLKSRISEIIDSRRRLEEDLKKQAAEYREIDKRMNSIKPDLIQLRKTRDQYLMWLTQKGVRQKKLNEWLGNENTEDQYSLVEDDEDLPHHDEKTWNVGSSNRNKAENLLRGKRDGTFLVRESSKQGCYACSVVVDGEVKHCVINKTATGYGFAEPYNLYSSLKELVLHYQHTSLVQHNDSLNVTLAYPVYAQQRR
T1 sequence (P42336 whole entry): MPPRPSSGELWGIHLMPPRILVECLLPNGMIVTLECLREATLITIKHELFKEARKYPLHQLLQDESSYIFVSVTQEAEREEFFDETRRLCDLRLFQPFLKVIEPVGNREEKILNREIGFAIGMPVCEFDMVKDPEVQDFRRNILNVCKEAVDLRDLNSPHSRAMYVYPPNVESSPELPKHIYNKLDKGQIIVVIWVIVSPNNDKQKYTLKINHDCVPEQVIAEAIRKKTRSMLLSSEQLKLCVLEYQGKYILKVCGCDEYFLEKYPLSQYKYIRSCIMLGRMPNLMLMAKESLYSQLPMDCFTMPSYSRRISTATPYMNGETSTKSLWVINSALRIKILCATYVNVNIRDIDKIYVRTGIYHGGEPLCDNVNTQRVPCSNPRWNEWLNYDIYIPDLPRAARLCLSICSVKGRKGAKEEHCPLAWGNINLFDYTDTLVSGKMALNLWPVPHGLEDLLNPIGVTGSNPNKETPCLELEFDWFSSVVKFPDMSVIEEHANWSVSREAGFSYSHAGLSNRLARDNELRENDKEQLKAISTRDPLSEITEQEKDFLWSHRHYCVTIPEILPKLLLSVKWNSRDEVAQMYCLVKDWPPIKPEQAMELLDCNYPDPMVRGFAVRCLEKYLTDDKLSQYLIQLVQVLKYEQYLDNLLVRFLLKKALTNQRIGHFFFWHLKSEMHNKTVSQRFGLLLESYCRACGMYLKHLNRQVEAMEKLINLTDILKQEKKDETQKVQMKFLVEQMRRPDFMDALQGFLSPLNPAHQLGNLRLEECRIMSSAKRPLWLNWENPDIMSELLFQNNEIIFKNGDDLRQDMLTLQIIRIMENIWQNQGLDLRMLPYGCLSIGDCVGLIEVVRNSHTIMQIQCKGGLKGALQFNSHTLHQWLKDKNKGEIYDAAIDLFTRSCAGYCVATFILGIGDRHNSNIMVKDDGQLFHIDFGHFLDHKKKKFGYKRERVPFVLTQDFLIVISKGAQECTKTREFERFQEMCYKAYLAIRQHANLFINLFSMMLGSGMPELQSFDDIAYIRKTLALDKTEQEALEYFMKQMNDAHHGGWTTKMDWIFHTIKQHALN

On to `CCc1ncnc(-c2ccc(OC)c(OC)c2)c1C#Cc1cnc(C)c(NS(C)(=O)=O)c1` [Example 1, N-{5-[4-(3,4-Dimethoxy-phenyl)-6-ethyl-pyrimidin-5-ylethynyl]-2-methyl-pyridin-3-yl}-methanesulfonamide], for which the IC50 on PI3Kalpha was found to be 0.001 µM. Besides, the EC50 with H460 cells was 0.49 µM; in the assay on MB453 cells it was 0.079 µM; in the assay on U87 cells it was 0.3 µM; with MCF7 cells, 0.039 µM; in the assay with BT474 cells, 0.094 µM.
Consider `CCc1ncnc(-c2cccc(CN(C)C)c2)c1C#Cc1cnc(C)c(NS(C)(=O)=O)c1` [Example 2, N-{5-[4-(3-Dimethylaminomethyl-phenyl)-6-ethyl-pyrimidin-5-ylethynyl]-2-methyl-pyridin-3-yl}-methanesulfonamide], for which, on PI3Kalpha, the concentration for half-maximal inhibition (IC50) was 0.007 µM. Further, the EC50 with H460 cells worked out at 2.82 µM; in the assay on MB453 cells, 0.394 µM; in the assay on U87 cells, 1.23 µM; in the assay with MCF7 cells, 0.439 µM; in the assay with BT474 cells, 0.588 µM.
As for `CCc1ncnc(-c2ccc(C)nc2)c1C#Cc1cnc(C)c(NS(C)(=O)=O)c1` [Example 3, N-{5-[4-Ethyl-6-(6-methyl-pyridin-3-yl)-pyrimidin-5-ylethynyl]-2-methyl-pyridin-3-yl}-methanesulfonamide], the IC50 at PI3Kalpha was found to be 0.001 µM. In addition, the half-maximal effective concentration (EC50) with H460 cells worked out at 0.368 µM; with MB453 cells, 0.112 µM; with U87 cells it was 0.41 µM; in the assay on MCF7 cells it was 0.023 µM; in the assay with BT474 cells it was 0.177 µM.
For the compound `CCc1ncnc(-c2ccnc(C)c2)c1C#Cc1cnc(C)c(NS(C)(=O)=O)c1` [Example 4, N-{5-[4-Ethyl-6-(2-methyl-pyridin-4-yl)-pyrimidin-5-ylethynyl]-2-methyl-pyridin-3-yl}-methanesulfonamide], the IC50 on PI3Kalpha amounted to 0.002 µM. The EC50 stood at 0.329 µM in the assay with H460 cells; 0.075 µM with MB453 cells; 0.383 µM in the assay with U87 cells; 0.027 µM in the assay on MCF7 cells; 0.171 µM in the assay on BT474 cells.
For the compound `CCc1ncnc(-c2ccnc(C)c2)c1C#Cc1cnc(C)c(NS(=O)(=O)c2ccccc2Cl)c1` [Example 11, 2-Chloro-N-{5-[4-ethyl-6-(2-methyl-pyridin-4-yl)-pyrimidin-5-ylethynyl]-2-methyl-pyridin-3-yl}-benzenesulfonamide], the IC50 on PI3Kalpha was 0.001 µM. The EC50 in the assay with H460 cells was 0.103 µM; with MB453 cells, 0.19 µM; with U87 cells, 0.686 µM; in the assay with MCF7 cells it was 0.074 µM.
Regarding `CCc1ncnc(-c2ccnc(C)c2)c1C#Cc1cnc(C)c(NS(=O)(=O)c2ccc(C#N)cc2)c1` [Example 84, 4-Cyano-N-{5-[4-ethyl-6-(2-methyl-pyridin-4-yl)-pyrimidin-5-ylethynyl]-2-methyl-pyridin-3-yl}-benzenesulfonamide], the IC50 at PI3Kalpha was 0.002 µM. Besides, the concentration giving a half-maximal response (EC50) in the assay on H460 cells amounted to 0.769 µM; with MB453 cells it was 0.19 µM; in the assay with U87 cells it was 0.778 µM; with MCF7 cells it was 0.085 µM.
Take `CCc1ccc(S(=O)(=O)Nc2cc(C#Cc3c(CC)ncnc3-c3ccnc(C)c3)cnc2C)cc1` [Example 100, 4-Ethyl-N-{5-[4-ethyl-6-(2-methyl-pyridin-4-yl)-pyrimidin-5-ylethynyl]-2-methyl-pyridin-3-yl}-benzenesulfonamide]: at PI3Kalpha, the IC50 was 0.005 µM. The EC50 came out at 0.558 µM in the assay with H460 cells, 0.746 µM in the assay on MB453 cells, 0.819 µM in the assay with U87 cells and 0.733 µM in the assay on BT474 cells.
In the case of `CCc1ncnc(-c2ccnc(C)c2)c1C#Cc1cnc(C)c(NS(=O)(=O)c2cc(Cl)ccc2OC)c1` [Example 101, 5-Chloro-N-{5-[4-ethyl-6-(2-methyl-pyridin-4-yl)-pyrimidin-5-ylethynyl]-2-methyl-pyridin-3-yl}-2-methoxy-benzenesulfonamide], at PI3Kalpha, the IC50 turned out to be 0.00065 µM. In addition, the EC50 in the assay on H460 cells stood at 0.082 µM; in the assay on MB453 cells, 0.089 µM; in the assay on U87 cells, 0.259 µM; with BT474 cells it was 0.102 µM.
As to `CCc1ncnc(-c2ccnc(C)c2)c1C#Cc1cnc(C)c(NS(=O)(=O)c2cc(C)ccc2OC)c1` [Example 102, N-{5-[4-Ethyl-6-(2-methyl-pyridin-4-yl)-pyrimidin-5-ylethynyl]-2-methyl-pyridin-3-yl}-2-methoxy-5-methyl-benzenesulfonamide], the IC50 on PI3Kalpha was 0.001 µM. The EC50 was found to be 0.104 µM in the assay on H460 cells, 0.146 µM in the assay on MB453 cells, 0.319 µM with U87 cells and 0.149 µM in the assay on BT474 cells.
For `CCc1ncnc(-c2ccnc(C)c2)c1C#Cc1cnc(C)c(NS(=O)(=O)c2c(F)cccc2F)c1` [Example 103, N-{5-[4-Ethyl-6-(2-methyl-pyridin-4-yl)-pyrimidin-5-ylethynyl]-2-methyl-pyridin-3-yl}-2,6-difluoro-benzenesulfonamide], the half-maximal inhibitory concentration (IC50) at PI3Kalpha turned out to be 0.00032 µM. The EC50 in the assay on H460 cells came to 0.185 µM; in the assay on MB453 cells, 0.059 µM; in the assay on U87 cells, 0.161 µM; in the assay with BT474 cells, 0.053 µM.
The like results for `CCc1ncnc(-c2ccc(CN)nc2)c1C#Cc1cnc(C)c(NS(=O)(=O)c2ccc(F)cc2F)c1` [Example 104, N-{5-[4-(6-Aminomethyl-pyridin-3-yl)-6-ethyl-pyrimidin-5-ylethynyl]-2-methyl-pyridin-3-yl}-2,4-difluoro-benzenesulfonamide] were, in that order, 0.00064 µM, 0.955 µM, 0.119 µM, 0.605 µM and 0.127 µM.
As to `CCc1ncnc(-c2ccc(CN)nc2)c1C#Cc1cnc(C)c(NS(=O)(=O)c2ccccc2C(F)(F)F)c1` [Example 105, N-{5-[4-(6-Aminomethyl-pyridin-3-yl)-6-ethyl-pyrimidin-5-ylethynyl]-2-methyl-pyridin-3-yl}-2-trifluoromethyl-benzenesulfonamide], at PI3Kalpha, the IC50 came to 0.00093 µM. Besides, the EC50 came to 0.958 µM with H460 cells, 0.152 µM in the assay on MB453 cells, 0.406 µM in the assay on U87 cells and 1.21 µM in the assay with BT474 cells.
As for `CCc1ncnc(-c2ccc(CN)nc2)c1C#Cc1cnc(C)c(NS(=O)(=O)c2ccccc2)c1` [Example 106, N-{5-[4-(6-Aminomethyl-pyridin-3-yl)-6-ethyl-pyrimidin-5-ylethynyl]-2-methyl-pyridin-3-yl}-benzenesulfonamide], the IC50 on PI3Kalpha was 0.001 µM. The EC50 in the assay with H460 cells is 0.393 µM; with MB453 cells, 0.118 µM; in the assay with U87 cells, 0.213 µM; with BT474 cells, 0.131 µM.

As usually defined, the IC50 is the concentration that inhibits the measured activity by half. Usually EC50 stands for the concentration at which the effect is half-maximal. The low end stands for greater potency, the high end for weaker potency.
